Data as given in patent publication US20240390251A1, “SKIN CARE COMPOSITION AND USE THEREOF, AND SKIN CARE COMPOSITION RAW MATERIAL” (YAMASA CORPORATION, priority 2021, published 2024).

Columns and labels:
[1] = system: inflammatory cytokine production; experiment: Anti-inflammatory evaluation of purine nucleotides in a similar experimental system; assay type: cell-based, human; settings: similar experimental system to Example 1
Protocol: (§1) Normal human keratinocytes (NHEK; manufactured by Kurabo Industries, Ltd.) were seeded in a 96-well plate at a density of 2.5×10^4 cells/well and cultured at 37° C. for 24 hours. The medium was replaced with 100 μL of sample-containing medium (HuMedia-KG2; manufactured by Kurabo Industries, Ltd.) and cultured for 24 hours. After removing the sample-containing medium, the plate was washed with 100 μL of Hanks balanced salt solution (HBSS (−)) and irradiated with 20 mJ/cm^2 using a UVB lamp (TL20W/12RS; manufactured by PHILIPS). After washing with HBSS (−), the medium was replaced with 100 μL of fresh medium and cultured for 24 hours. After culturing, the culture supernatant was collected. The sample solutions used were 0.8 (mg/mL) of UMP,2Na 0.4, 0.8 (mg/mL) of CMP,2Na 0.4, 0.8 (mg/mL) of U:C=1:1 (mass ratio 1:1 mixture of UMP,2Na and CMP,2Na) 0.4, 0.8 (mg/mL) of U:C=4:1 (mass ratio 4:1 mixture of UMP,2Na and CMP,2Na) 0.4, and 0.8 (mg/mL) of U:C=1:4 (mass ratio 1:4 mixture of UMP,2Na and CMP,2Na) 0.4.
The culture supernatant of human keratinocytes was collected, and amounts of IL-1α, IL-6, and IL-8 were quantified by ELISA.

IL-1α [2] = experiment: Anti-inflammatory evaluation using UVB-irradiated normal human keratinocytes, IL-1α by ELISA; assay type: cell-based; settings: NHEK, UVB 20 mJ/cm^2, sample 0.4 and 0.8 mg/mL, FIG. 1; for amount of IL-1α produced: culture supernatant
Protocol: as §1, with “The effects of using various nucleotides on photoaging of the skin were evaluated using normal human keratinocytes. The effects of various nucleotides on inflammatory cytokines induced by UV irradiation of normal human keratinocytes were evaluated. Known inflammatory cytokines IL-1α, IL-6, and IL-8 were used as the inflammatory cytokines to be evaluated. Normal” for “Normal”, “(-))” for “(−))”, “(T[…]/12RS;” for “(TL20W/12RS;”, “(-),” for “(−),”, “0.4. The culture supernatant of human keratinocytes was collected, and amounts of IL-1α, IL-6, and IL-8 were quantified by ELISA.” for “0.4.”

IL-8 [3] = experiment: Anti-inflammatory evaluation using UVB-irradiated normal human keratinocytes, IL-8 by ELISA; assay type: cell-based; settings: NHEK, FIG. 3; for concentration dependence of the inhibitory effect on IL-8 / amount of IL-8 produced: UVB 20 mJ/cm^2, sample 0.4 and 0.8 mg/mL; for amount of IL-8 produced: culture supernatant
Protocol: as §1, with “The effects of using various nucleotides on photoaging of the skin were evaluated using normal human keratinocytes. The effects of various nucleotides on inflammatory cytokines induced by UV irradiation of normal human keratinocytes were evaluated. Known inflammatory cytokines IL-1α, IL-6, and IL-8 were used as the inflammatory cytokines to be evaluated. Normal” for “Normal”, “(-))” for “(−))”, “(T[…]/12RS;” for “(TL20W/12RS;”, “(-),” for “(−),”, “0.4. The culture supernatant of human keratinocytes was collected, and amounts of IL-1α, IL-6, and IL-8 were quantified by ELISA.” for “0.4.”

IL-6 [4] = experiment: Anti-inflammatory evaluation using UVB-irradiated three-dimensional cultured human epidermis, IL-6 by ELISA; assay type: cell-based; settings: UVB 600 mJ/cm^2, tested 0.125-1.0 w/v %, FIG. 5
Protocol: (§2) To reproduce the phenomenon that occurs in actual epidermis, three-dimensional cultured human epidermis was used to evaluate the suppression effect of cytidylic acid on inflammatory cytokines induced by UV irradiation. In addition, to verify the relationship between the amount of cytidylic acid and the suppression effect on inflammatory cytokine production, the effects of varying the amount of cytidylic acid were evaluated.
(§3) Three-dimensional cultured human epidermis (LabCyte EPI MODEL 24; manufactured by J TEC) was set in a 24-well plate to which 500 μL of the attached assay medium was added, and acclimated overnight at 37° C. 50 μL of sample-containing PBS (−) was applied from the stratum corneum side and cultured for 24 hours. After removing the sample-containing PBS (−), the plate was washed with PBS (−) and irradiated with 600 mJ/cm^2 using a UVB lamp (TL20W/12RS; manufactured by PHILIPS). The medium was replaced with a fresh medium, 50 μL of sample-containing PBS (−) was newly applied from the stratum corneum side, and further cultured for 48 hours. After culturing, the culture supernatant was collected. The concentrations of cytidylic acid in the respective samples were 0, 0.125, 0.25, 0.5, and 1.0 (w/v %), respectively. Each inflammatory cytokine contained in the supernatant was quantified by ELISA.

IL-1α [5] = experiment: Anti-inflammatory evaluation using UVB-irradiated three-dimensional cultured human epidermis, IL-1α by ELISA; assay type: cell-based; settings: UVB 600 mJ/cm^2, tested 0.125-1.0 w/v %, FIG. 4
Protocol: as §2, §3

IL-6 [6] = experiment: Anti-inflammatory evaluation using UVB-irradiated normal human keratinocytes, IL-6 by ELISA; assay type: cell-based; settings: NHEK, FIG. 2; for concentration dependence of the inhibitory effect on IL-6 / amount of IL-6 produced: UVB 20 mJ/cm^2, sample 0.4 and 0.8 mg/mL; for amount of IL-6 produced: culture supernatant
Protocol: as §1, with “The effects of using various nucleotides on photoaging of the skin were evaluated using normal human keratinocytes. The effects of various nucleotides on inflammatory cytokines induced by UV irradiation of normal human keratinocytes were evaluated. Known inflammatory cytokines IL-1α, IL-6, and IL-8 were used as the inflammatory cytokines to be evaluated. Normal” for “Normal”, “(-))” for “(−))”, “(T[…]/12RS;” for “(TL20W/12RS;”, “(-),” for “(−),”, “0.4. The culture supernatant of human keratinocytes was collected, and amounts of IL-1α, IL-6, and IL-8 were quantified by ELISA.” for “0.4.”

IL-8 [7] = experiment: Anti-inflammatory evaluation using UVB-irradiated three-dimensional cultured human epidermis, IL-8 by ELISA; assay type: cell-based; settings: UVB 600 mJ/cm^2, tested 0.125-1.0 w/v %, FIG. 6
Protocol: as §2, §3

[8] = UVB 20 mJ/cm^2, significant difference between uridylic acid and cytidylic acid

| Compound | effect of inhibiting inflammatory cytokine production, compared with cytidylic acid and uridylic acid [1] | concentration dependence of the inhibitory effect on IL-1α (IL-1α [2]) | amount of IL-1α produced (IL-1α [2]) | concentration dependence of the inhibitory effect on IL-8 (IL-8 [3]) | amount of IL-8 produced (IL-8 [3]) | effect of inhibiting IL-8 production, compared with uridylic acid (IL-8 [3]; [8]) | concentration at which a significant IL-6 production inhibitory effect was observed (IL-6 [4]) | concentration at which a significant IL-1α production inhibitory effect was observed (IL-1α [5]) | concentration dependence of the inhibitory effect on IL-6 (IL-6 [6]) | amount of IL-6 produced (IL-6 [6]) | effect of inhibiting IL-6 production, compared with uridylic acid (IL-6 [6]; [8]) | concentration at which a significant IL-8 production inhibitory effect was observed (IL-8 [7]) |
| --- | --- | --- | --- | --- | --- | --- | --- | --- | --- | --- | --- | --- |
| Nc1ncnc2c1ncn2[C@@H]1O[C@H](COP(=O)(O)O)[C@@H](O)[C@H]1O [adenylic acid] | only a lower effect of inhibiting inflammatory cytokine production than cytidylic acid and uridylic acid |  |  |  |  |  |  |  |  |  |  |  |
| Nc1ccn([C@@H]2O[C@H](COP(=O)(O)O)[C@@H](O)[C@H]2O)c(=O)n1 [cytidylic acid] |  | increased the inhibitory effect in a concentration-dependent manner | suppressed the amount of IL-1α produced | increased the inhibitory effect in a concentration-dependent manner | suppressed the amount of IL-8 produced | particularly remarkable effect of inhibiting IL-8 production | ≥ 0.125% | ≥ 0.25% | increased the inhibitory effect in a concentration-dependent manner | suppressed the amount of IL-6 produced | particularly remarkable effect of inhibiting IL-6 production | ≥ 0.125% |
| Nc1nc2c(ncn2[C@@H]2O[C@H](COP(=O)(O)O)[C@@H](O)[C@H]2O)c(=O)[nH]1 [guanylic acid] | only a lower effect of inhibiting inflammatory cytokine production than cytidylic acid and uridylic acid |  |  |  |  |  |  |  |  |  |  |  |
| O=c1ccn([C@@H]2O[C@H](COP(=O)(O)O)[C@@H](O)[C@H]2O)c(=O)[nH]1 [uridylic acid] |  | increased the inhibitory effect in a concentration-dependent manner | suppressed the amount of IL-1α produced | increased the inhibitory effect in a concentration-dependent manner | suppressed the amount of IL-8 produced |  |  |  | increased the inhibitory effect in a concentration-dependent manner | suppressed the amount of IL-6 produced |  |  |
